Measured values as given in publication PMC12731528, “High‐Affinity Peptide‐Drug Conjugate Ligands for the TRIM24 PHD and Bromodomain” (Chemistry (Weinheim an Der Bergstrasse, Germany), 2025).
Several values for one entry are separate records, joined by “and”; a condition that tells them apart may be missing. Identical values can stand only once. Like-named read-outs stand apart in the source and are kept apart here. One block for each molecule: values may come before it.

Tests used:
TRIM33α = test system: TRIM33α; design: method as in PMID 36098557, PMID 26061247; conditions: cited from earlier work
TRIM33β = test system: TRIM33β; design: method as in PMID 36098557, PMID 26061247; conditions: cited from earlier work
His6-TRIM24 (PHD-BRD) [1] = molecular target: T1, His6-TRIM24 (PHD-BRD) (Homo sapiens, UniProt O15164); assay: AlphaScreen competition assay, displacement of biotinylated H3(1–27)K9Me3K18Ac (B3); assay type: binding; design: N825–E1007; made in house; host or cells: Escherichia coli BL21-Gold (DE3), plasmid pNIC28-Bsa4; conditions: for IC50: AlphaScreen® IC50 (TRIM24 PHD-BRD), inhibition of TRIM24-H3K9Me3K18Ac (B3) binding, mean of triplicate ± SEM; for AlphaScreen signal at plateau relative to baseline: competitor H3(1–27)K9Me3K18Ac
T1 sequence (O15164 825-1007): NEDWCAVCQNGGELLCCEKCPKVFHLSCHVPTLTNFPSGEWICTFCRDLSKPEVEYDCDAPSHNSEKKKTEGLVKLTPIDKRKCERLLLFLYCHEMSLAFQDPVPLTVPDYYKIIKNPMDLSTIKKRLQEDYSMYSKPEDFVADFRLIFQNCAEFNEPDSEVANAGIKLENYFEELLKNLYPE

His6-TRIM24 (PHD-BRD) [2] = molecular target: T1, His6-TRIM24 (PHD-BRD); assay: AlphaScreen competition assay, displacement of biotinylated H3(1–27)K18Ac (B2); design: N825–E1007; made in house; host or cells: Escherichia coli BL21-Gold (DE3), plasmid pNIC28-Bsa4; conditions: inhibition of TRIM24-H3K18Ac (B2) binding; mean of triplicate ± SEM
BT-474 (ER+) = assay: MTT assay, BT-474; assay type: cell-based, human; conditions: ER+ breast cancer cell line, up to 10 μM, 16 h
Description: (§1) (ER+) and CAL-51 (triple negative), treated with the indicated compound (10 µM). The data are represented as the mean of means for two biological repeats (n = 2), each consisting of three technical repeats. Error bars indicate the standard error of the mean. […]
(§2) due to issues with procurement at the time of running the assay. […]
(§3) indicated compound (10 µM). Compounds were added after seeding on day 0 only and counting was carried out each day for 6 days. Data are represented as the mean of triplicate data from one biological repeat. Error bars indicate the standard deviation. […]
(§4) supplemented with 10% FBS (Merck Life Sciences U.K. Ltd., F7524). Unless otherwise stated, cells were cultured in a humidified incubator at 37 °C and 5% CO2. Cell lines were passaged by trypsinisation (Trypsin-EDTA solution 1×, Merck Life Sciences U.K. Ltd., T3924), and by diluting the cells into a culture flask at the desired density in complete media. Cell lines were […]
(§5) Cells were seeded and allowed to adhere for 6 h in plastic clear-bottomed 96-well plates in a total volume of 200 μL/well complete medium.

CAL-51 cells = assay: Proliferation and clonogenic assays, CAL-51; assay type: cell-based, human; conditions: CAL-51, 10 µM
Description: (§6) (1 picture or pasted object on this page, not shown here) […]
as §4, §5

MCF-7 cells = assay: Proliferation and clonogenic assays, MCF-7; assay type: cell-based, human; conditions: MCF-7, 10 µM
Description: as §1, §2, §3
Error bars indicate the standard deviation.
as §6, §4, §5

CAL-51 (triple negative) = assay: MTT assay, CAL-51; assay type: cell-based, human; conditions: triple-negative breast cancer cell line, up to 10 μM, 16 h
Description: as §1, §2, §3, §4, §5

BRPF1 (BRD) [3] = molecular target: T2, BRPF1 (BRD) (Homo sapiens, UniProt P55201); assay: BROMOscan assay, BRPF1; conditions: mean of duplicate data ± 95% confidence interval
T2 sequence (P55201 628-732 limits assumed): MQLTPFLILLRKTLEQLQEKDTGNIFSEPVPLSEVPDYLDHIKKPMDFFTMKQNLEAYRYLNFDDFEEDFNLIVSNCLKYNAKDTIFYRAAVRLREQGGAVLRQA

TRIM24 (PHD‐BRD) = molecular target: T3, TRIM24 (PHD‐BRD) (Homo sapiens, UniProt O15164); assay: BROMOscan assay, TRIM24; assay type: binding
T3 sequence (O15164 826-1004 limits assumed): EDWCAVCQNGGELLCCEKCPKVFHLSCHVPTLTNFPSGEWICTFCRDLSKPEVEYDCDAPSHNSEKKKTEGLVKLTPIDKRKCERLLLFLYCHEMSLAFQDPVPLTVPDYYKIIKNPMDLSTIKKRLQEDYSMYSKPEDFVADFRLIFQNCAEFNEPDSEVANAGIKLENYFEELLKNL
From the text: The Hill Slope was set to −1.

His6-TRIM24 (PHD-BRD) [4] = molecular target: T1, His6-TRIM24 (PHD-BRD); assay: Surface plasmon resonance (SPR); assay type: binding; design: N825–E1007; made in house; host or cells: Escherichia coli BL21-Gold (DE3), plasmid pNIC28-Bsa4; conditions: 15 °C; for Kd: mean of means of triplicate ± SEM
BRPF1 = conditions: ref Gechijian et al. 2018; cited from earlier work
TRIM24 = conditions: ref Gechijian et al. 2018; cited from earlier work
His6-TRIM24 (PHD-BRD) [5] = molecular target: T1, His6-TRIM24 (PHD-BRD)
His6-TRIM24 (PHD-BRD) [6] = molecular target: His6-TRIM24 (PHD-BRD) (UniProt O15164); assay: other; AlphaScreen, competitor biotinylated H3K9Me3K18Ac (B3)
BRPF1 (BRD) [7] = molecular target: T4, BRPF1 (BRD); assay: BROMOscan; conditions: Synthetic nine-residue H3(1-9) peptide. Residue 9 (K10 in precursor numbering) is unnatural amino acid 42, a lysine analogue whose side-chain nitrogen is part of an isoindoline ring (parent written as Lys). C-terminal group is not stated in the text. Limits are inferred from H3(1-8) peptide 46 plus amino acid 42. limits by convention from the usual BRPF1 bromodomain structural construct (covers B); modification not given
T4 chain: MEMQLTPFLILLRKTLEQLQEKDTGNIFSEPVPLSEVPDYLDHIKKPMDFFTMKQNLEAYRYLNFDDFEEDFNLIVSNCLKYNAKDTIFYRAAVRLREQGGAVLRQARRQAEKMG

BRPF1 (BRD) [8] = molecular target: T4, BRPF1 (BRD); conditions: Synthetic nine-residue H3(1-9) peptide. Residue 9 (K10 in precursor numbering) is unnatural amino acid 42, a lysine analogue whose side-chain nitrogen is part of an isoindoline ring (parent written as Lys). C-terminal group is not stated in the text. Limits are inferred from H3(1-8) peptide 46 plus amino acid 42. limits by convention from the usual BRPF1 bromodomain structural construct (covers B); modification not given

Molecule: CCCOc1cc(OCCCCN(C)C)cc(Oc2cc3c(cc2NS(=O)(=O)c2ccc(OC)c(OC)c2)n(C)c(=O)n3C)c1 [IACS9571]
- binding to TRIM33α (TRIM33α): does not bind
- binding to TRIM33β (TRIM33β): does not bind

Molecule: CCCOc1cccc(Oc2cc3c(cc2NS(=O)(=O)c2cccc(C(=O)NCCOCCOCCOCC(=O)N[C@H](C(=O)N4C[C@H](O)C[C@H]4C(=O)NCc4ccc(-c5scnc5C)cc4)C(C)(C)C)c2)n(C)c(=O)n3C)c1 [dTRIM24]
- Kd (BRPF1): 52 nM
- Kd (TRIM24): 42 nM

Molecule: H3(1-27)K9Me3K18Ac
- IC50 (His6-TRIM24 (PHD-BRD) [6]): 242 nM

B1: TRIM24 PHD-binding peptide (56) (peptide)
chain: ARTKQTARK
- Kd (BRPF1 (BRD) [7]): > 10000 nM
- Kd (BRPF1 (BRD) [8]): > 10000 nM

The next lines start with results.

- IC50 (His6-TRIM24 (PHD-BRD) [1]): > 100000 nM
- AlphaScreen signal at plateau relative to baseline (His6-TRIM24 (PHD-BRD) [1]): did not decrease to baseline
- IC50 (His6-TRIM24 (PHD-BRD) [2]): 388 ± 46.6 nM
Molecule: CCCOc1cccc(Oc2cc3c(cc2NS(=O)(=O)c2cccc(C(=O)O)c2)n(C)c(=O)n3C)c1 [compound 28]

- IC50 (His6-TRIM24 (PHD-BRD) [1]): 484 nM
- AlphaScreen signal at plateau relative to baseline (His6-TRIM24 (PHD-BRD) [1]): did not decrease to baseline
- IC50 (His6-TRIM24 (PHD-BRD) [2]): 105 ± 5.3 nM
Molecule: CCCOc1cccc(Oc2cc3c(cc2NS(=O)(=O)c2cccc(C(=O)NCCOCCOCCNC(C)=O)c2)n(C)c(=O)n3C)c1 [compound 32]

- IC50 (His6-TRIM24 (PHD-BRD) [1]): 348 nM
- AlphaScreen signal at plateau relative to baseline (His6-TRIM24 (PHD-BRD) [1]): did not decrease to baseline
- IC50 (His6-TRIM24 (PHD-BRD) [2]): 71 ± 4.1 nM
Molecule: CCCOc1cccc(Oc2cc3c(cc2NS(=O)(=O)c2cccc(C(=O)NCCOCCOCCOCCNC(C)=O)c2)n(C)c(=O)n3C)c1 [compound 33]
- cytotoxic effects (MTT) (BT-474 (ER+)): did not show cytotoxic effects
- effect on breast cancer cell growth (CAL-51 cells): neither compound significantly affected
- effect on breast cancer cell growth (MCF-7 cells): neither compound significantly affected
- cytotoxic effects (MTT) (CAL-51 (triple negative)): did not show cytotoxic effects

- IC50 (His6-TRIM24 (PHD-BRD) [1]): 275 nM
- AlphaScreen signal at plateau relative to baseline (His6-TRIM24 (PHD-BRD) [1]): did not decrease to baseline
- Kd (BRPF1 (BRD) [3]): 2.15 ± 0.49 nM
- Kd (TRIM24 (PHD‐BRD); BROMOscan TRIM24 PHD-BRD Kd, mean of duplicate data ± 95% confidence interval): 2 ± 0.98 nM
- Kd (TRIM24 (PHD‐BRD); individual duplicate curves, read-out: BROMOscan TRIM24 Kd, single dose-response curve): 2.5 nM and 1.5 nM
- koff (His6-TRIM24 (PHD-BRD) [4]; SPR): 0.061 s⁻¹
- kon (His6-TRIM24 (PHD-BRD) [4]; SPR): 6.1e+06 M⁻¹ s⁻¹
- Kd (His6-TRIM24 (PHD-BRD) [4]; binding saturation, read-out: SPR Kd – equilibrium): 11 ± 2.3 nM
- Kd (His6-TRIM24 (PHD-BRD) [4]; multi-cycle kinetics, read-out: SPR Kd – kinetic): 10 ± 7 nM
- IC50 (His6-TRIM24 (PHD-BRD) [2]): 94.2 ± 4.6 nM
Molecule: CCCOc1cccc(Oc2cc3c(cc2NS(=O)(=O)c2cccc(C(=O)NCCOCCOCCOCCOCCNC(C)=O)c2)n(C)c(=O)n3C)c1 [compound 34]

- IC50 (His6-TRIM24 (PHD-BRD) [1]): > 400000 nM
- IC50 (His6-TRIM24 (PHD-BRD) [5]; AlphaScreen® IC50, inhibition of TRIM24-H3K9Me3 (B1) binding by PDCs and controls, mean of triplicate ± SEM): > 400000 nM
- IC50 (His6-TRIM24 (PHD-BRD) [5]; AlphaScreen® IC50, inhibition of TRIM24-H3K9Me3 (B1) binding, mean of triplicate data ± standard error of the mean): > 400000 nM
- IC50 (His6-TRIM24 (PHD-BRD) [2]): > 400000 nM
Molecule: C[C@H](N)C(=O)N[C@@H](CCCNC(=N)N)C(=O)N[C@H](C(=O)N[C@@H](CCCC[N+](C)(C)C)C(=O)N[C@@H](CCC(N)=O)C(=O)N[C@H](C(=O)N[C@@H](C)C(=O)N[C@@H](CCCNC(=N)N)C(=O)N[C@@H](CCCCN)C(=O)N[C@@H](CO)C(=O)N[C@H](C(=O)NCC(=O)NCC(=O)N[C@@H](CCCCN)C(=O)N[C@@H](C)C(=O)O)[C@@H](C)O)[C@@H](C)O)[C@@H](C)O [reference compound]
